This experiment concerns the target T1, hSCN3A sodium channels (Homo sapiens, UniProt Q9NY46).
T1 construct: expressed in transfected cells
Briefly: hSCN3A electrophysiology, Ionworks Quattro automated platform (Table C). It counts as cell-based. Particulars: for inhibition at 3 µM: 3 μM compound, read-out: SCN3A % INHIB HTS IWQ 3 μM; for inhibition at 10 µM: 10 μM compound, read-out: SCN3A % INHIB HTS IWQ 10 μM. An outline of the steps: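 HEK cells stably expressing hSCN3A were recorded in perforated-patch mode with 100 μg/ml amphotericin on Ionworks Quattro. The protocol used an inactivating step, a brief hyperpolarized partial recovery, then a depolarized test step. Inhibition was taken from current amplitude before versus after compound addition.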
For orientation: In patch-clamp work, channel activity is measured electrically.

T1 sequence (Q9NY46 whole entry): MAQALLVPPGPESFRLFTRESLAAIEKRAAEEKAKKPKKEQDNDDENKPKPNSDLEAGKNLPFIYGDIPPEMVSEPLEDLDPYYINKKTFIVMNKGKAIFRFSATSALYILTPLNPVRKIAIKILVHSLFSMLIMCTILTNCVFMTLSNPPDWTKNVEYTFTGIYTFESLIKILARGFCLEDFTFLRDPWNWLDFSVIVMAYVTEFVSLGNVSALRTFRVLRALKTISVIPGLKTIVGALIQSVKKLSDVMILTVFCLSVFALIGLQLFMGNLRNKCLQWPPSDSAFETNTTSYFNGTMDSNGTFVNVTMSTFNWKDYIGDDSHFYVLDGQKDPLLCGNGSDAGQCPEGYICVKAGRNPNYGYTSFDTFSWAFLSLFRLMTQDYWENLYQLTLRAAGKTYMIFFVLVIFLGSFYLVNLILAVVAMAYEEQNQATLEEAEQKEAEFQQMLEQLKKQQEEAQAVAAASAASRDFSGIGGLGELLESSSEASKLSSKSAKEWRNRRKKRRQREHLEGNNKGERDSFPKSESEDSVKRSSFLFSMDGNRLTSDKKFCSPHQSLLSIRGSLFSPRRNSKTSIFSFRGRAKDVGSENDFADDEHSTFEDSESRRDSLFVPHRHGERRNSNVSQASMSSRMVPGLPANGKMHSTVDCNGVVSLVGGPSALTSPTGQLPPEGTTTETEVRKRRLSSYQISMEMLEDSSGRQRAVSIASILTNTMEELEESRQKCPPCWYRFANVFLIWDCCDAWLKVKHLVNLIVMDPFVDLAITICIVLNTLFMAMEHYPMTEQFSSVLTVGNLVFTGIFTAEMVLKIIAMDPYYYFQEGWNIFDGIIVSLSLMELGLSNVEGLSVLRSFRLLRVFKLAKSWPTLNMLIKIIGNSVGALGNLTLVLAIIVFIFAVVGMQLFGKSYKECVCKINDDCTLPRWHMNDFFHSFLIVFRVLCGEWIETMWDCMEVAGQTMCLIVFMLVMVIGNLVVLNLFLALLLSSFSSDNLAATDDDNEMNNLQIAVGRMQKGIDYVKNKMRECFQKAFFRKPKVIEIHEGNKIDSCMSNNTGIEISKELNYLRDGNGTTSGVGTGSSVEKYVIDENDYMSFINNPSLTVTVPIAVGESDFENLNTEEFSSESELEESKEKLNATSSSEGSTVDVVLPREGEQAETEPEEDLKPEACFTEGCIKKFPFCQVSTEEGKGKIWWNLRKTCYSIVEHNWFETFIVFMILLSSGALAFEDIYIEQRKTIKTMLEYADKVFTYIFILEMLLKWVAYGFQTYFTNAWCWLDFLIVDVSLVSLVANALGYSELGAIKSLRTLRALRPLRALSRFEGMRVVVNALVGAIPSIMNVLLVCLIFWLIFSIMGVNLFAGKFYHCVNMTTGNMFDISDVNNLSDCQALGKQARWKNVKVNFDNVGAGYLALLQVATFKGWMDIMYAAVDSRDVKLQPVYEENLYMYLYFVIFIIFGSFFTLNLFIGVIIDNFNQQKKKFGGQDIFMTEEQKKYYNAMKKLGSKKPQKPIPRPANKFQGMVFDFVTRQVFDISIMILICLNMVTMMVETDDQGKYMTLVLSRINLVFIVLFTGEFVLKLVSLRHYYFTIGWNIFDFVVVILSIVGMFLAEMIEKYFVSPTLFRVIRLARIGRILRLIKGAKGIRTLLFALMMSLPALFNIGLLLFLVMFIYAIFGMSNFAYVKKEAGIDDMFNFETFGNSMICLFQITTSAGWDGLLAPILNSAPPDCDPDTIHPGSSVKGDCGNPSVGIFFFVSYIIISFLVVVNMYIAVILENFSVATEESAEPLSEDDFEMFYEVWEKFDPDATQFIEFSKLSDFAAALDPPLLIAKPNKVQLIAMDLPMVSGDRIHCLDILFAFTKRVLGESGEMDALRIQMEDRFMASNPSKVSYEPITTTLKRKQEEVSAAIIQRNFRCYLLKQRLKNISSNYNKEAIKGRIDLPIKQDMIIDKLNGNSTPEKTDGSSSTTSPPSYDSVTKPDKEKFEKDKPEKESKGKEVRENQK

Regarding `CC(Cc1ccc(F)cc1)NC(=O)c1ccc(S(=O)(=O)Nc2nccs2)cc1` (centres unmarked) [Example 149, N-[2-(4-fluorophenyl)-1-methylethyl]-4-[(1,3-thiazol-2-ylamino)sulfonyl]benzamide], the inhibition at 3 µM worked out at 12.5% and the inhibition at 10 µM was found to be 14.6%.
The corresponding values for `Cc1ccc(C)c(C2CCCN2C(=O)c2ccc(S(=O)(=O)Nc3nccs3)cc2)c1` (centres unmarked) [Example 202, 4-{[2-(2,5-Dimethylphenyl)pyrrolidin-1-yl]carbonyl}-N-1,3-thiazol-2-yl-benzenesulfonamide] are 15.8% and 13.7%.
Regarding `O=C(c1ccc(S(=O)(=O)Nc2nccs2)cc1)N1CCCC(COc2ccc(F)cc2)C1` (centres unmarked) [Example 264, 4-({3-[(4-Fluorophenoxy)methyl]piperidin-1-yl}carbonyl)-N-1,3-thiazol-2-yl-benzenesulfonamide], the inhibition at 3 µM amounted to 16.9% and the inhibition at 10 µM worked out at 14.8%.
Take `O=C(NCCOc1ccccc1)c1ccc(S(=O)(=O)Nc2nccs2)cc1` [Example 168, N-(2-phenoxyethyl)-4-[(1,3-thiazol-2-ylamino)sulfonyl]benzamide]: the inhibition at 3 µM is 31.4% and the inhibition at 10 µM is 39.3%.
The corresponding values for `CC(C)(NC(=O)c1ccc(S(=O)(=O)Nc2nccs2)cc1)c1ccc(F)c(F)c1` [Example 146, N-[1-(3,4-difluorophenyl)-1-methylethyl]-4-[(1,3-thiazol-2-ylamino)sulfonyl]benzamide] are 24.3% and 27.9%.
As to `CCN(C(=O)c1ccc(S(=O)(=O)Nc2nccs2)cc1)[C@H](CO)c1ccccc1` [Example 219, N-ethyl-N-[(1S)-2-hydroxy-1-phenylethyl]-4-[(1,3-thiazol-2-yl-amino)sulfonyl]benzamide], the inhibition at 3 µM came to 13.1% and the inhibition at 10 µM worked out at 1.08%.
Turning to `O=C(c1ccccc1)C1CCCN(C(=O)c2ccc(S(=O)(=O)Nc3nccs3)cc2)C1` (centres unmarked) [Example 253, 4-[(3-Benzoylpiperidin-1-yl)carbonyl]-N-1,3-thiazol-2-yl-benzenesulfonamide], the inhibition at 3 µM is 5.99% and the inhibition at 10 µM came out at 31.3%.
Turning to `O=C(N[C@@H]1CCC[C@@H]1c1ccc(F)cc1)c1ccc(S(=O)(=O)Nc2nccs2)cc1` [Example 132, N-[(1R,2R)-2-(4-fluorophenyl)cyclopentyl]-4-[(1,3-thiazol-2-ylamino)sulfonyl]benzamide], the inhibition at 3 µM was found to be 19.7% and the inhibition at 10 µM was 15.3%.
For the molecule `Cc1ccc([C@H](C)NC(=O)c2ccc(S(=O)(=O)Nc3nccs3)cc2)cc1` [Example 79, N-[(1S)-1-(4-methylphenyl)ethyl]-4-[(1,3-thiazol-2-ylamino)sulfonyl]benzamide], the inhibition at 3 µM is 17.7% and the inhibition at 10 µM was -1.9%.
The corresponding values for `Cc1cccc(CNC(=O)c2ccc(S(=O)(=O)Nc3nccs3)cc2)c1C` [Example 82, N-(2,3-dimethylbenzyl)-4-[(1,3-thiazol-2-ylamino)sulfonyl]benzamide] are 29.7% and 63%.
In the case of `O=C(NCc1cc(C(F)(F)F)ccc1F)c1ccc(S(=O)(=O)Nc2nccs2)cc1` [Example 76, N-[2-fluoro-5-(trifluoromethyl)benzyl]-4-[(1,3-thiazol-2-ylamino)sulfonyl]benzamide], the inhibition at 3 µM is 35.8% and the inhibition at 10 µM was 52.1%.
The corresponding values for `Cc1ccc(OCCNC(=O)c2ccc(S(=O)(=O)Nc3nccs3)cc2)cc1` [Example 154, N-[2-(4-methylphenoxy)ethyl]-4-[(1,3-thiazol-2-ylamino)sulfonyl]benzamide] are 28% and 30.8%.
The matching figures for `O=C(NCCc1ccccc1F)c1ccc(S(=O)(=O)Nc2nccs2)cc1` [Example 77, N-[2-(2-fluorophenyl)ethyl]-4-[(1,3-thiazol-2-ylamino)sulfonyl]benzamide]: 16.6% and 27.9%.

Values taken from patent US8741934B2, “Inhibitors of ion channels” (Pfizer Limited, priority 2007, dated 2014).
